Earlier results on one compound are cited in US20260130963A1, “COMPOSITIONS COMPRISING RED YEAST RICE” (Meda Pharma S.p.A., priority 2021, published 2026).

For data set [1] the following is noted: “low solubility/high permeability”.
The conditions of data set [2]: in vivo.

Molecules are shown by their SMILES. In brackets after ≈: the same amount, converted by molar mass.

For `CC[C@H](C)C(=O)O[C@H]1C[C@@H](C)C=C2C=C[C@H](C)[C@H](CC[C@@H]3C[C@@H](O)CC(=O)O3)[C@H]21` [Lovastatin], the water solubility was 0.4 µg/mL (≈ 0.989 µM). Also, the BCS classification result in data set [1] was “BCS Class II”. Moreover, in data set [2], the half-life (as a rule, how long it takes for the measured level to halve) was 1 to 2 h.
